Test results from patent US10358434B2, “2-(3-pyridinyl)-1H-benzimidazole derivative compound and medicament containing same” (NIHON MEDI-PHYSICS CO., LTD., priority 2014, dated 2019).

Key:
[1] = tested on: human adrenal gland section expressing aldosterone-producing adenoma; assay: In vitro autoradiography using human adrenal adenoma; format: binding
From the text: From adrenal gland excised from a human patient for treatment of primary aldosteronism, a portion containing aldosterone-producing adenoma was removed and was then frozen. The frozen adrenal gland was embedded in an embedding agent for production of a frozen tissue section (Tissue-Tek O.C.T. Compound, Sakura Finetek Japan). Using a freezing microtome (CM3050S, Leica Microsystems), a 7-μm thin slice section, which is schematically shown in FIGS. 17(a) and 17(b), was produced, and was preserved at −20° C. before use. In FIGS. 17, 71a and 71b indicate aldosterone-producing adenomas, 72a and 72b indicate normal adrenal cortexes, and 73a and 73b indicate normal adrenal medullas. A 5-33 kBq/mL solution was prepared by adding a suitable amount of each of Compounds [^18F] 100, [^18F] 200, [^123I] 400, [^18F] 500, and [^123I] 601 to [^123I] 610, which were obtained by the methods described in Examples 2, 4, 7, 9, 11, 13, 15, 17, 19, 21, 23, 25, 27, and 29, or [^123I] IMTO to a phosphate-buffered physiological saline containing 1 w/v % bovine serum albumin (not containing fatty acid). The radioactivity concentration was measured using an autowell gamma system (ARC-7001, manufactured by Hitachi Aloka Medical, Ltd.). The section was immersed in the obtained sample solution for 10 minutes. For Compounds [^18F] 100, [^18F] 200, [^123I] 400, [^18F] 500, [^123I] 601 and [^123I] 602, the section shown in FIG. 17(a) was used, and for Compounds […] [^123I] IMTO, both sections shown in FIGS. 17(a) and (b) were used. Each sample solution was washed off, and the section was then exposed to an imaging plate (BAS-SR2040, manufactured by FUJIFILM Holdings Corporation) (IP) for 16-20 hours, and thereafter, an autoradiogram was obtained using a fluoro-image analyzer (FLA-7000, manufactured by FUJIFILM Holdings Corporation).
In order to quantitatively compare differences between images caused by ^123I and ^18F nuclides, a correction was made by calculating accumulation of radioactivity within the range of a region of interest (ROI) by means of integral calculation based on half-life, added radioactivity and IP contact time.
610. FIG. 18(b), FIG. 19(b), FIG. 20(b), FIG. 21(b), FIG. 22(a), FIG. 23(a), FIG. 24(a), FIG. 25(a), FIG. 26(a), FIG. 27(a), FIG. 28(a), FIG. 29(a), FIG. 30(a), and FIG. 31(a) each show an autoradiogram of [^123I] IMTO. […] 100, [^18F] 200, [^123I] 400, [^18F] 500, and [^123I] 601 to [^123I] […] The ROI having the same area as each other was established in a normal site and in a site in which aldosterone-producing adenoma had developed. Then, the PSL value (B1) indicating accumulation of radioactivity in the sites of normal adrenal cortexes 72a and 72b was compared with the PSL value (B2) indicating accumulation of radioactivity in the sites of aldosterone-producing adenomas 71a and 71b. In Table 7, the B1, B2 and B2/B1 values of [^18F] 100 indicate the mean values for the number of tests (n), respectively.

[2] = Plasma stability evaluation (TLC analysis); format: in vitro ADME; settings: 37° C., 60 minutes
Protocol: Evaluation was made using a heparin-treated normal human plasma pool (Kohjin Bio Co., Ltd.). Compounds [^18F] 100, [^18F] 200, [^123I] 400, [^18F] 500, and [^123I] 601 to 610 obtained by the methods shown in Examples 2, 4, 7, 9, 11, 13, 15, 17, 19, 21, 23, 25, 27, and 29 were each added to the aforementioned human plasma (5 mL), and the obtained mixture was then incubated at 37° C. for 60 minutes. Thereafter, the mixture was centrifuged with addition of methanol, so that a deproteinization treatment was carried out. Thereafter, stability was evaluated by TLC analysis. As TLC analysis conditions, the TLC analysis conditions applied upon the above described synthesis of each compound were applied.

[3] = In vivo kinetics experiment (radioactivity distribution); set-up: species or system Wistar male rat; settings: rat; for Adrenal gland/blood ratio of radioactivity accumulation / Adrenal gland/fat ratio of radioactivity accumulation / Adrenal gland/kidney ratio of radioactivity accumulation / Adrenal gland/liver ratio of radioactivity accumulation / Adrenal gland/muscle ratio of radioactivity accumulation / Adrenal gland/small intestine ratio of radioactivity accumulation / Radioactivity distribution Adrenal gland / Radioactivity distribution Bladder (including urine) / Radioactivity distribution Blood / Radioactivity distribution Fat / Radioactivity distribution Femur / Radioactivity distribution Heart / Radioactivity distribution Kidney / Radioactivity distribution Large intestine / Radioactivity distribution Liver / Radioactivity distribution Lung / Radioactivity distribution Muscle (lower limbs) / Radioactivity distribution Remaining whole body / Radioactivity distribution Small intestine / Radioactivity distribution Spleen / Radioactivity distribution Stomach / Radioactivity distribution Testis / Radioactivity distribution Whole brain: caudal vein
Protocol: Each of Compounds [^18F] 100, [^18F] 200, [^123I] 400, [^18F] 500, and [^123I] 601 to 610 obtained by the methods described in Examples 2, 4, 7, 9, 11, 13, 15, 17, 19, 21, 23, 25, 27, and 29, or [^123I] IMTO, was diluted with a physiological saline containing 1 w/v % ascorbic acid to prepare a solution to be administered. The above described compound (approximately 1 to 3.7 MBq) was injected into the caudal vein of a Wistar male rat (9 weeks old) under anesthesia with a mixed gas of isoflurane/air, and ten minutes after the injection, the rat was sacrificed by exsanguination. From the thus sacrificed rat, blood and organs (heart, lung, stomach, liver, spleen, small intestine, large intestine, kidney, bladder (including urine), muscle (lower limbs), brain, adrenal gland, testis, fat, femur, or thyroid gland) were excised, and the weights thereof were then measured. Thereafter, radioactivity was measured in the blood, the individual excised organs, and the remaining whole body. Further, 30 and 60 minutes after the administration, the same operations as those described above were carried out. […] The symbol “n” in Tables 9 to 23 indicates the number of rats used. In addition, Tables 9 to 23 also show the ratio of radioactivity accumulation in adrenal grand (% ID/g) to radioactivity accumulation in each of blood, liver, kidney, small intestine, muscle and fat (% ID/g).

Radiochemical purity after incubation in human plasma ([2]; TLC analysis): 97%
Adrenal gland/blood ratio of radioactivity accumulation ([3]; 10 min after administration): 137.96 ± 52.72
Adrenal gland/fat ratio of radioactivity accumulation ([3]; 10 min after administration): 141.33 ± 57.27
Adrenal gland/kidney ratio of radioactivity accumulation ([3]; 10 min after administration): 6.14 ± 2.01
Adrenal gland/liver ratio of radioactivity accumulation ([3]; 10 min after administration): 1.93 ± 0.69
Adrenal gland/muscle ratio of radioactivity accumulation ([3]; 10 min after administration): 63.25 ± 34.56
Adrenal gland/small intestine ratio of radioactivity accumulation ([3]; 10 min after administration): 9.89 ± 2.73
Radioactivity distribution Adrenal gland ([3]; 10 min after administration): 10.19 ± 3.35 % ID/g
Radioactivity distribution Bladder (including urine) ([3]; 10 min after administration): 0.22 ± 0.08 % ID/g
Radioactivity distribution Blood ([3]; 10 min after administration): 0.08 ± 0.01 % ID/g
Radioactivity distribution Fat ([3]; 10 min after administration): 0.08 ± 0.02 % ID/g
Radioactivity distribution Femur ([3]; 10 min after administration): 0.63 ± 0.08 % ID/g
Radioactivity distribution Heart ([3]; 10 min after administration): 0.32 ± 0.08 % ID/g
Radioactivity distribution Kidney ([3]; 10 min after administration): 1.70 ± 0.40 % ID/g
Radioactivity distribution Large intestine ([3]; 10 min after administration): 0.15 ± 0.02 % ID/g
Radioactivity distribution Liver ([3]; 10 min after administration): 5.39 ± 0.99 % ID/g
Radioactivity distribution Lung ([3]; 10 min after administration): 0.63 ± 0.08 % ID/g
Radioactivity distribution Muscle (lower limbs) ([3]; 10 min after administration): 0.23 ± 0.24 % ID/g
Radioactivity distribution Remaining whole body ([3]; 10 min after administration): 0.22 ± 0.03 % ID/g
Radioactivity distribution Small intestine ([3]; 10 min after administration): 1.03 ± 0.14 % ID/g
Radioactivity distribution Spleen ([3]; 10 min after administration): 3.85 ± 0.65 % ID/g
Radioactivity distribution Stomach ([3]; 10 min after administration): 0.56 ± 0.17 % ID/g
Radioactivity distribution Testis ([3]; 10 min after administration): 0.05 ± 0.01 % ID/g
Radioactivity distribution Whole brain ([3]; 10 min after administration): 0.01 ± 0.00 % ID/g
Adrenal gland/blood ratio of radioactivity accumulation ([3]; 30 min after administration): 249.08 ± 51.81
Adrenal gland/fat ratio of radioactivity accumulation ([3]; 30 min after administration): 352.33 ± 208.06
Adrenal gland/kidney ratio of radioactivity accumulation ([3]; 30 min after administration): 18.18 ± 4.58
Adrenal gland/liver ratio of radioactivity accumulation ([3]; 30 min after administration): 3.58 ± 0.82
Adrenal gland/muscle ratio of radioactivity accumulation ([3]; 30 min after administration): 179.35 ± 63.77
Adrenal gland/small intestine ratio of radioactivity accumulation ([3]; 30 min after administration): 11.12 ± 2.64
Radioactivity distribution Adrenal gland ([3]; 30 min after administration): 19.61 ± 4.29 % ID/g
Radioactivity distribution Bladder (including urine) ([3]; 30 min after administration): 1.17 ± 0.77 % ID/g
Radioactivity distribution Blood ([3]; 30 min after administration): 0.08 ± 0.01 % ID/g
Radioactivity distribution Fat ([3]; 30 min after administration): 0.07 ± 0.02 % ID/g
Radioactivity distribution Femur ([3]; 30 min after administration): 0.71 ± 0.18 % ID/g
Radioactivity distribution Heart ([3]; 30 min after administration): 0.27 ± 0.06 % ID/g
Radioactivity distribution Kidney ([3]; 30 min after administration): 1.10 ± 0.16 % ID/g
Radioactivity distribution Large intestine ([3]; 30 min after administration): 0.20 ± 0.02 % ID/g
Radioactivity distribution Liver ([3]; 30 min after administration): 5.55 ± 0.80 % ID/g
Radioactivity distribution Lung ([3]; 30 min after administration): 0.43 ± 0.07 % ID/g
Radioactivity distribution Muscle (lower limbs) ([3]; 30 min after administration): 0.12 ± 0.03 % ID/g
Radioactivity distribution Remaining whole body ([3]; 30 min after administration): 0.18 ± 0.03 % ID/g
Radioactivity distribution Small intestine ([3]; 30 min after administration): 1.78 ± 0.21 % ID/g
Radioactivity distribution Spleen ([3]; 30 min after administration): 4.57 ± 1.32 % ID/g
Radioactivity distribution Stomach ([3]; 30 min after administration): 0.73 ± 0.11 % ID/g
Radioactivity distribution Testis ([3]; 30 min after administration): 0.06 ± 0.01 % ID/g
Radioactivity distribution Whole brain ([3]; 30 min after administration): 0.01 ± 0.00 % ID/g
Adrenal gland/blood ratio of radioactivity accumulation ([3]; 60 min after administration): 247.32 ± 64.42
Adrenal gland/fat ratio of radioactivity accumulation ([3]; 60 min after administration): 397.01 ± 160.35
Adrenal gland/kidney ratio of radioactivity accumulation ([3]; 60 min after administration): 18.96 ± 4.83
Adrenal gland/liver ratio of radioactivity accumulation ([3]; 60 min after administration): 5.20 ± 1.19
Adrenal gland/muscle ratio of radioactivity accumulation ([3]; 60 min after administration): 236.89 ± 62.76
Adrenal gland/small intestine ratio of radioactivity accumulation ([3]; 60 min after administration): 7.66 ± 2.34
Radioactivity distribution Adrenal gland ([3]; 60 min after administration): 21.34 ± 5.24 % ID/g
Radioactivity distribution Bladder (including urine) ([3]; 60 min after administration): 2.41 ± 0.97 % ID/g
Radioactivity distribution Blood ([3]; 60 min after administration): 0.09 ± 0.01 % ID/g
Radioactivity distribution Fat ([3]; 60 min after administration): 0.06 ± 0.03 % ID/g
Radioactivity distribution Femur ([3]; 60 min after administration): 0.77 ± 0.13 % ID/g
Radioactivity distribution Heart ([3]; 60 min after administration): 0.26 ± 0.03 % ID/g
Radioactivity distribution Kidney ([3]; 60 min after administration): 1.13 ± 0.17 % ID/g
Radioactivity distribution Large intestine ([3]; 60 min after administration): 0.38 ± 0.22 % ID/g
Radioactivity distribution Liver ([3]; 60 min after administration): 4.11 ± 0.66 % ID/g
Radioactivity distribution Lung ([3]; 60 min after administration): 0.45 ± 0.05 % ID/g
Radioactivity distribution Muscle (lower limbs) ([3]; 60 min after administration): 0.09 ± 0.01 % ID/g
Radioactivity distribution Remaining whole body ([3]; 60 min after administration): 0.18 ± 0.02 % ID/g
Radioactivity distribution Small intestine ([3]; 60 min after administration): 2.85 ± 0.37 % ID/g
Radioactivity distribution Spleen ([3]; 60 min after administration): 4.40 ± 1.15 % ID/g
Radioactivity distribution Stomach ([3]; 60 min after administration): 1.02 ± 0.19 % ID/g
Radioactivity distribution Testis ([3]; 60 min after administration): 0.08 ± 0.01 % ID/g
Radioactivity distribution Whole brain ([3]; 60 min after administration): 0.02 ± 0.00 % ID/g
SMILES: Fc1cc2nc(-c3cncc(Cn4ccnc4)c3)n(CC[18F])c2cc1Cl [[^18F] 100, 6-Chloro-5-fluoro-1-(2-[^18F]fluoroethyl)-2-[5-(imidazol-1-ylmethyl)pyridin-3-yl]benzimidazole]
accumulation of radioactivity in adrenal gland section (autoradiogram) ([1]; FIGS. 18 to 31): accumulation of radioactivity was selectively observed in a region in which aldosterone-producing adenoma had been pathologically observed
B2/B1 accumulation ratio ([1]; section of FIG. 17(a)): 5.08
B2 (PSL value, aldosterone-producing adenoma) ([1]; section of FIG. 17(a), site 71a): 16480
B1 (PSL value, normal adrenal cortex) ([1]; section of FIG. 17(a), site 72a): 3241
stability in human plasma [2]: hardly metabolized and decomposed in the plasma
accumulation of radioactivity in adrenal gland vs blood and peripheral tissues ([3]; Tables 9 to 22): high accumulation of radioactivity in adrenal gland was observed, in comparison to in blood and peripheral tissues
